Blank lines part the entries; values can stand above or below the molecule they belong to.
Legend:
[1] = set-up: method as in PMID 11883602; details: in alcohol; reference standard; cited from earlier work
[2] = UV-visible absorption spectra in different solvents; format: physicochemical; set-up: λmax: unit not given beside the values; details: 10 µM
Procedure: The UV-visible (10 µM) and fluorescence emission spectra (5 µM) of phthalocyanines in different solvents were measured using SpectraMax M4 microplate reader (Molecular Devices, CA). UV-visible spectra were collected for wavelengths ranging from 350–800 nm and molar extinction coefficient (ε) for each compound was determined. Meanwhile, the fluorescence emission spectra of the compounds were recorded at 650–800 nm following excitation at their respective maximal absorption (λmax). The fluorescence quantum yields (φF) were calculated by using the following formula: φF = φFstd (F×Astd)/[…] where, F and Fstd refer to the area under the fluorescence curve of sample and standard, respectively. A and Astd refer to the absorbance of sample and standard compound at their excitation wavelengths respectively. ZnPcS4 with φFstd = 0.07 (DMSO) was used as reference.

CAM vasculature = assay: PDT-induced vascular occlusion in CAM model; format: in vivo, Lohmann Brown chicken; details: for Occlusion score: 10 nmol/embryo i.v., mean ± SEM of ten embryos, scale of Table 1
Procedure: Freshly fertilized eggs from Lohmann Brown chicken variety (Hong Hing Sdn. Bhd, Selangor, Malaysia) were incubated with the narrow apex down in a 90° swinging Octagon 40DX incubator (Brinsea Products Inc., Standford, England) at 37°C and 65% relative humidity. On embryo development day (EDD) three, an eggshell opening of about 4 mm in diameter was bored at the apex and sealed with adhesive tape to avoid contamination and desiccation of the egg contents. The eggs were further incubated in stationary position with the apex upright until ready for use at EDD-9.
For vascular occlusion study, the egg opening was extended to ∼30 mm in diameter on EDD-9. Embryos were intravenously administered with a single bolus of 10 nmol/embryo of phthalocyanine in dosing vehicle (5% CrEL, 5% EtOH in saline) at the CAM main vasculature. One min after injection, a site with blood vessel diameter between 5–100 µm was irradiated with a light dose of 5 J/cm^2 or 10 J/cm^2. Irradiation was performed with light of 600–800 nm wavelength with a fluence rate of 11.5 mW/cm^2 over an irradiation area of 1.13 mm^2. Fluorescence angiograms were performed immediately to assess the PDT-induced vasculature damage. Blood vessels were perfused with 20 µl of 25 mg/ml FITC-dextran followed by injection of Indian ink into the extra-embryonic cavity to decrease the embryo’s interfering fluorescence from deeper located vessels. The vasculature network at the site of irradiation was illuminated by exciting FITC at 465–496 nm wavelengths on the fluorescence microscope. The vasculature network was imaged and the extent of damage induced by PDT was scored using a previously defined arbitrary damage scale from 1 to 5 as listed in Table 1 [26]. Generally, the damage on smaller vessels would have lower score whereas the damage on larger blood vessels would have higher score, depending on the size and degree of damage that was caused. At least 10 embryos were assessed for each treatment group.

[3] = Log P partition coefficient, shake-flask method; format: physicochemical; details: Octanol-1/H2O, room temperature
Procedure: Phthalocyanines were prepared in presaturated Octanol-1 (Oct) or H2O depending on their solubility (ZnPcS4, phthalocyanines 1 and 2 in H2O; phthalocyanine 3 in Oct) with concentrations ranging from 1–20 µM. […] The glass tube was left to stand for 1–2 h at room temperature. The absorbance of the phthalocyanine was measured before addition of the other solvent and also after incubation. To obtain log P value, calculations were done using the formula: log P = log [COct/CH2O] where, COct and CH2O represent concentrations of phthalocyanine in Oct and H2O, respectively. Partition coefficient (log P) is defined as the ratio of concentrations of a dissolved substance in a two-phase system consisting of two immiscible solvents e.g. n-octanol and water at equilibrium. It reflects the level of hydrophilicity and hydrophobicity of a compound, which determines the permeability of the compound across the lipid bilayers of cell membrane. In this study, the log P values of the phthalocyanines were measured using the shake-flask method.

[4] = test system: MCF-7, HCT-116 and HSC-2 cancer cell-lines; assay: In vitro phototoxicity assay (MTT), panel of cancer cell lines; format: cell-based, human; details: 4.0 J/cm^2
Procedure: MCF-7 human breast carcinoma and HCT-116 cells human colon carcinoma cell lines were obtained from American Tissue Culture Collection (Virginia, USA), whereas HSC-2 human oral squamous carcinoma cell line was purchased from Health Science Research Resources Bank, (Osaka, Japan). Approximately 3000–4000 cells/well were seeded in 96-well plate and incubated overnight for cell adherence and growth. […] Illumination was performed in the presence of photosensitizer in the media. The cells were further incubated for 48 h before cell viability was assessed by the MTT assay. For MTT assay, 20 µl of MTT solution (5 mg/ml) were added to each well and incubated for 4 h. The medium was removed and replaced with 100 µl of DMSO to dissolve the formazan crystal formed and the absorbance was read at 570 nm with a microplate reader. The percentage of cell viability was determined relative to untreated control and the half maximal inhibitory concentration (IC50) values were determined. Dark toxicity for each phthalocyanine was also determined in parallel.

HSC-2 cells = assay: Cellular uptake study by flow cytometry; format: cell-based, human; details: 10 µM
Procedure: HSC-2 cells were plated overnight in 6-well plates (1×10^5 cells/well) in MEM media. Cells were incubated with 10 µM of phthalocyanine 1, 2, 3 or ZnPcS4 for various time intervals. Following incubation, cells were washed twice with PBS, collected by trypsinization and resuspended in phenol red-free MEM media. The mean fluorescence signal for 10 000 cells were analyzed using FACSCalibur flow cytometer (Becton Dickinson, NJ) with FL4 channel (excitation 635 nm, bandpass filter 661/16 nm) and data collected were translated into relative concentration using the formula F = k * QE * Po * (2.303 *ε * b * c). All assays were performed in triplicates. F = measured fluorescence intensity, k = geometric instrumental factor, QE = quantum efficiency (ratio of photons being emitted to photons being absorbed) and Po = radiant power of the excitation source (wavelength-dependent molar absorptivity coefficient). b and c are as being used in the Beer-Lambert law, where b = path length, and c = concentration of the analyte.

[5] = test system: MCF-7 human breast carcinoma; assay: In vitro phototoxicity assay (MTT); format: cell-based; details: 2 h incubation, MTT after 48 h
Procedure: (§1) MCF-7 human breast carcinoma and HCT-116 cells human colon carcinoma cell lines were obtained from American Tissue Culture Collection (Virginia, USA), whereas HSC-2 human oral squamous carcinoma cell line was purchased from Health Science Research Resources Bank, (Osaka, Japan). Approximately 3000–4000 cells/well were seeded in 96-well plate and incubated overnight for cell adherence and growth. Cells were then treated with phthalocyanines 1, 2, 3 or ZnPcS4 with concentrations ranging from 0.01 to 100 µM and were incubated for 2 h before irradiated with 4.0 J/cm^2 of light filtered with Roscolux #26 Light Red (>580 nm) (Rosco, NY) membrane filter at a fluence rate of 7.5 mW/cm^2 for 10 min. Illumination was performed in the presence of photosensitizer in the media. The cells were further incubated for 48 h before cell viability was assessed by the MTT assay. For MTT assay, 20 µl of MTT solution (5 mg/ml) were added to each well and incubated for 4 h. The medium was removed and replaced with 100 µl of DMSO to dissolve the formazan crystal formed and the absorbance was read at 570 nm with a microplate reader. The percentage of cell viability was determined relative to untreated control and the half maximal inhibitory concentration (IC50) values were determined. Dark toxicity for each phthalocyanine was also determined in parallel.

[6] = test system: HCT-116 cells human colon carcinoma; assay: In vitro phototoxicity assay (MTT); format: cell-based; details: 2 h incubation, MTT after 48 h
Procedure: as §1

[7] = test system: HSC-2 human oral squamous carcinoma cell line; assay: In vitro phototoxicity assay (MTT); format: cell-based; details: 2 h incubation, MTT after 48 h
Procedure: as §1

[8] = set-up: method as in earlier work; details: in DMSO; reference standard value; cited from earlier work

Molecule: C=Cc1c(C)c2cc3nc(c4c5[nH]c(cc6nc(cc1[nH]2)C(C)=C6CC)c(C)c5C(=O)[C@@H]4C(=O)OC)[C@@H](CCC(=O)O)[C@@H]3C [Pha, pheophorbide a]
singlet oxygen quantum yield [1]: 0.52

ε ([2]; DMSO): 114 000 M^−1cm^−1 | λmax ([2]; DMSO): 676 | ε ([2]; Ethanol): 27 000 M^−1cm^−1 | λmax ([2]; Ethanol): 666 | ε ([2]; PBS+2% Triton x-100): 20 000 M^−1cm^−1 | λmax ([2]; PBS+2% Triton x-100): 606 | ε ([2]; PBS): 23 000 M^−1cm^−1 | λmax ([2]; PBS): 606 | log P [3]: −1.7±0.4
Molecule: tetrasulfonated zinc (II) phthalocyanine [ZnPcS4]
Occlusion score (CAM vasculature; 5 J/cm^2, 600–800 nm): 0 ± 0.0 | Occlusion score (CAM vasculature; 10 J/cm^2, 600–800 nm): 0 ± 0.2 | vascular occlusion effect (in words) (CAM vasculature; 10 nmol/embryo, 5 J/cm^2): failed to demonstrate vascular occlusion effects | vascular occlusion effect (in words) (CAM vasculature; similar experimental conditions, light dose not stated at the place (abstract)): no detectable vascular occlusion | phototoxicity IC50, range over MCF-7, HCT-116 and HSC-2 ([4]; tested up to 100 µM): failed to yield determinable IC50 values | loss of cell viability ([4]; treatment concentrations of up to 100 µM): no significant loss of cell viability | cellular uptake (in words) (HSC-2 cells): poorly taken up by cells | IC50 ([5]; 0 J/cm^2 (dark toxicity)): > 100 µM | IC50 ([5]; 4.0 J/cm^2 (>580 nm)): > 100 µM | IC50 ([6]; 0 J/cm^2 (dark toxicity)): > 100 µM | IC50 ([6]; 4.0 J/cm^2 (>580 nm)): > 100 µM | IC50 ([7]; 0 J/cm^2 (dark toxicity)): > 100 µM | IC50 ([7]; 4.0 J/cm^2 (>580 nm)): > 100 µM | φF (fluorescence quantum yield) [8]: 0.07

From paper PMC4026539, “Improved Photodynamic Efficacy of Zn(II) Phthalocyanines via Glycerol Substitution” (PLoS ONE, 2014)
